In PMC12035805, “A Water-Soluble Aggregation-Induced Emission Photosensitizer with Intrinsic Antibacterial Activity as an Antiplanktonic and Antibiofilm Therapeutic Agent” (Journal of Medicinal Chemistry, 2025):

Tests used:
MRSA (ATCC 43300) = experiment: Wound infection mouse model, MRSA biofilm; type: in vivo; details: mice, topical 90 μM, 600 nm 15 min, every 24 h for 4 days (TPA-1 + L)
Description: All in vivo experiments were approved by the Department of Science and Technology of Zhejiang Province (SYXK(Zhejiang)2021-0043). Female BALB/c mice (10–12 weeks old) were kept in 12 h light and 12 h dark cycle with access to free food and water for 7 days before and throughout the experiment. The backs of the mice were shaved and disinfected with iodine. A full-thickness circular wound (7 mm in diameter) was then created at the back of the mice. The mice were allowed to recover for 24 h after surgery to prevent sepsis.[65] Ten μL of 1× 10^8 CFU/mL MRSA (ATCC 43300) or P. aeruginosa (ATCC 27853) in saline was added to the wound. The wound was covered with an adhesive dressing for 24 h of infection. Next, the mice were randomly divided into four groups: (1) 50 μL TPA-1 (90 μM) with 600 nm light irradiation (60 mW/cm^2) for 15 min, (2) 50 μL TPA-1 (90 μM) in dark, (3) 50 μL saline with 600 nm light irradiation (60 mW/cm^2) for 15 min, and (4) 50 μL saline in dark. For light irradiation groups, TPA-1 and saline were incubated on the wound for 10 min before irradiation. The treatment was sustained for 4 days. The wound size and body weight of the mice were recorded every day. On day 6, the mice were euthanatized, and the wound tissue was collected. […] The other half of the tissue was homogenized, and the number of viable bacteria was measured by the plate counting method.

S. aureus mature biofilm = S. aureus mature biofilm eradication assay in the dark; type: cell-based, Staphylococcus aureus; details: 24 h
Description: For biofilm eradication assay, overnight culture of S. aureus in TSB under darkness was diluted to 1 × 10^5 CFU/mL in TSB (with 1% glucose). 100 μL of the diluted culture was transferred to each well of a 96-well plate. The plate was kept at 37 °C for 24 h under darkness to form mature biofilms. The medium was removed, and the biofilms were washed with 200 μL of PBS (3 times). 100 μL of the premixed TPA-1 solutions in TSB (with 1% glucose) were added to the wells. The plate was further incubated for 24 h under darkness and subjected to the crystal violet assay as stated in the biofilm inhibition assay. The biofilm survival rate (%) was calculated as (ODTPA-1 – ODblank)/(ODmedium – ODblank) × 100% where ODTPA-1, ODmedium, and ODblank were the absorbances of the wells with bacteria treated TPA-1, with bacteria without treatment and with medium only, respectively. The experiment was performed in triplicate.

S. aureus = experiment: Resistance development assay on S. aureus; type: cell-based, Staphylococcus aureus
Description: The MICs for TPA-1 and norfloxacin against S. aureus were first determined by the above-mentioned method. The wells with 0.5 × MIC of compounds were transferred to 1 mL fresh MHB and incubated under darkness for 3–4 h at 37 °C. The bacteria were then used to conduct a MIC assay again. The experiments were repeated for 20 days. The fold changes in the MIC values of the compounds were recorded. The experiments were performed in duplicate.

[1] = tested on: S. aureus biofilm formation; experiment: S. aureus biofilm inhibition assay in the dark (crystal violet); type: cell-based; details: Staphylococcus aureus, light or radiation study, without light irradiation
Description: For biofilm inhibition assay, overnight culture of S. aureus in TSB was diluted to 1 × 10^7 CFU/mL in TSB (with 1% glucose). Ten μL of the diluted bacteria were added to a 96-well plate containing 90 μL of serial diluted TPA-1 in TSB (with 1% glucose). After overnight incubation at 37 °C in darkness, the medium in the well was removed. The remaining biofilm was washed with 200 μL of PBS (3 times) and fixed with 100 μL of methanol for 10 min. The well was left for drying. Then, 150 μL of 0.1% crystal violet was added to the wells and stained for 10 min. The crystal violet was removed, and the wells were washed with 200 μL of PBS (3 times). After drying, the remaining crystal violet was dissolved in 100 μL of 95% ethanol with gentle shaking, and the absorbance at 570 nm was recorded. The biofilm inhibition % was calculated as [1 – (ODTPA-1 – ODblank)/(ODmedium – ODblank)] × 100% where ODTPA-1, ODmedium and ODblank were the absorbances of the wells with bacteria treated TPA-1, with bacteria without treatment and with medium only, respectively. The experiment was performed in triplicate.

[2] = Light toxicity on HFF-1 cells (MTT after PDT); type: cell-based; details: human, 600 nm light irradiation for 45 min
Description: HFF-1 cells were seeded in a 96-well plate with a density of 10,000 cells/well for 12 h at 37 °C in darkness. Different concentrations of TPA-1 were added to the cell culture medium and incubated for 20 min at 37 °C in darkness. The cells were then incubated in the dark or irradiated by 600 nm light for 45 min. The cell viability was then evaluated using the MTT assay, which was described in the cytotoxicity assay.

human erythrocytes = experiment: Hemolysis of human erythrocytes; type: cell-based
Description: (§1) The human erythrocyte concentrate was prepared according to the kit manual from the Biomaterial Hemolytic Assay Kit (Hemoscan). After the human erythrocytes had been washed and diluted with manufacture buffer, 100 μL of erythrocytes (10%) were added into 100 μL of various concentrations of compounds in PBS. 1% of Triton X (1%) was the positive control, while PBS was the negative control. The erythrocytes were then gently mixed with the TPA compounds and further incubated for an hour at 37 °C. After that, the erythrocytes were centrifuged (1000 rpm, 5 min), and 20 μL of supernatant was added to 180 μL of PBS in a 96-well plate. The optical density at 380, 415, and 450 nm was measured by a plate reader. The final OD value of the compounds was calculated as (2 × OD415) – (OD450 + OD380) where OD380, OD415, and OD450 are the optical density of the solution at 380, 415, and 450 nm, respectively. The hemolysis rates of the compounds were calculated as (ODcompound – ODPBS)/(ODTritonX – ODPBS) × 100% where ODcompound, ODPBS, and ODTritonX are the final OD values of the erythrocytes mixed with TPA compounds, PBS, and 1% Triton X, respectively. The experiment was performed in triplicate.

[3] = Hemolysis of human erythrocytes; type: cell-based; details: 200 μM compound, 1 h, 37 °C
Description: as §1

SMILES: C#CCC[n+]1c(/C=C/c2ccc(-c3ccc(N(c4ccc(OCCC[N+](C)(C)C)cc4)c4ccc(OCCC[N+](C)(C)C)cc4)cc3)s2)sc2ccccc21.[Br-].[Br-].[Br-] [TPA-1]
- MRSA eradicated in infected tissues (MRSA (ATCC 43300)): 96% ± 3%
- MRSA log (CFU/mg tissue) reduction (MRSA (ATCC 43300)): 1.4 ± 0.6 log (CFU/mg tissue)
- eradication of mature S. aureus biofilms without light (S. aureus mature biofilm): only limited ability to eradicate mature biofilms
- increase of MIC against S. aureus after treatment for 20 days (S. aureus; 20 days of passages at 0.5 × MIC): 2 fold
- MIC (S. aureus; Staphylococcus aureus, read-out: initial MIC against S. aureus in resistance development assay): 3.12 µM
- inhibition at 3.125 µM ([1]; 1 × MIC (3.125 μM)): > 90%
- inhibition at 6.25 µM ([1]; ≥ 6.25 μM): > 99.9%
- viability at 45 min, 40 µM [2]: > 90%
- HC50 (human erythrocytes): > 200 µM
- hemolysis at 1 h, 200 µM [3]: < 2%
